Source: US6071884A, “Pharmaceutical compositions and therapeutic methods” (Kirin Beer Kabushiki Kaisha, priority 1992, dated 2000)

Columns and labels:
[1] = Life-span-increasing effect on irradiation of a lethal dose of radiation; assay type: in vivo, mouse (BDF1); conditions: 10 mice/group, 9 Gy X-ray, 0.1 mg/kg i.v. days 0, 4, 8
Protocol: Pharmacological Test 4: Life-Span-Increasing Effect on Irradiation of a Lethal Dose of Radiation
An experiment was carried out by using 6 week old female BDF1 mice purchased from Japan SLC Co., Ltd., with 10 mice made one group.
The entire bodies of the entire body of the mice were irradiated with 9 Gy of X-rays by using a Hitachi X-ray irradiator (MBR-1520R), and the day on which the X-ray was irradiated was referred to as "day 0".

blood platelets [2] = test: Thrombocytopenia-inhibiting effect in X-ray-irradiated mice; assay type: in vivo, mouse (BDF1); conditions: 10 days after 5 Gy X-ray; 0.1 mg/kg i.v. within 2 h; mean ± SD; vehicle per series 10.3, 6.8, 6.7; non-treatment 68.2, 96.9, 73.0
Protocol: Pharmacological Test 5: Thromboclytopenia-Inhibiting Effect
The thrombocytopenia-inhibiting effect of each sample upon an X-ray-irradiated mouser which is one of models with a decreased number of blood platelets was examined.
An experiment was carried out by using 6 week old female BDF1 mice purchased from Japan SLC Co., Ltd., with 6 mice made one group.
5 Gy of X ray was irradiated to the entire body of the mice by a Hitachi X-ray irradiator CMBR-1520R). Within 2 hours after the irradiation, each sample was administered to the caudal vein of the mice at an amount of 0.1 mg/kg.
(§1) After 10 days, blood was collected from the fundus vein of the mice, and the number of blood platelets was measured by a sequential multi-channel hemocytometer E-2500/cs (Toa Iyo Denshi Kabushiki Kaisha). The number of blood platelets of the non-treated group, that of the medium-administered group, and that of the sample-administered group are shown in Table 5.

[3] = tested on: marrow cells (mononuclear cell fraction); test: Proliferation-stimulating effect on marrow cell of mouse (3H-TdR uptake); assay type: cell-based, mouse (BALB/c); conditions: percentage of control, 72 h; for activity at 1 µg/mL: 10^0 μg/ml; for activity at 0.1 µg/mL: 10^-1 μg/ml; for activity at 0.01 µg/mL: 10^-2 μg/ml; for activity at 0.001 µg/mL: 10^-3 μg/ml
Protocol: Pharmacological Test 1: Proliferation-Stimulating Effect on Marrow Cell of Mouse
Marrow cells were prepared from the thigh bone of a 7 week old female BALB/c mouse purchased from Japan SLC Co., Ltd., and a mononuclear cell fraction (MNF) obtained by fractionation using a lympholyte-M (Cedar Lane, Ontario, Canada) was used in the following experiment.
The concentration of the MNF was adjusted to 1.5×10^6 cells/ml by using 10% FCS RPMI 1640 (Nissui Pharmaceutical Co., Ltd., Tokyo, Japan) as a culture medium. 10 μl/well of a sample with a predetermined concentration and 100 μl/well of the above-prepared MNF were placed on a round-bottomed 96 well plate, and incubated under the conditions of 37° C. and 5% CO2 for 72 hours. Thereafter, 0.5 μCi/well of ^3 H-thymidine (^3 H-TDR) was added. After 8 hour incubation, the cells were harvested, and the amount of the 3H-TdR taken in the nuclei was measured by a liquid scintillation counter.

blood platelets [4] = test: Blood-platelet-increasing effect upon normal mouse; assay type: in vivo, mouse (BDF1); conditions: normal mice; 6 days after 0.1 mg/kg i.v.; mean ± SD; vehicle per series 58.2, 63.0, 71.1
Protocol: Pharmacological Test 6: Blood-Platelet-Increasing Effect upon Mouse
An experiment was carried out by using 6 week old female BDF1 mice purchased from Japan SLC Co., Ltd., with 5 mice made one group.
as §1, with “Each sample was administered to the caudal vein of the mice at a dose of 0.1 mg/kg. After” for “After”, “6” for “10”, “vehicle-administered” for “non-treated group, that of the medium-administered”, “6.” for “5.”

[5] = day 10, controls per series 10, 10, 10, 10, 10, 8
[6] = day 15, controls per series 8, 9, 5, 5, 7, 1
[7] = day 20, controls per series 4, 5, 1, 2, 3, 0
[8] = day 25, controls per series 3, 3, 0, 0, 2, 0
[9] = day 30, controls per series 1, 1, 0, 0, 0, 0

**Q.** What does the source list for `CCCCCCCC/C=C\CCCCCCCC(=O)N[C@@H](CO[C@H]1O[C@H](CO)[C@H](O)[C@H](O)[C@H]1O)[C@H](O)CCCCCCCCCCCCCCC` [Compound 29, (2S,3R)-1-(α-D-galactopyranosyloxy)-2-oleoylamino-3-octadecanol]?
**A.** Number of Surviving Mice [1, 5]: 10 mice; Number of Surviving Mice [1, 6]: 9 mice; Number of Surviving Mice [1, 7]: 8 mice; Number of Surviving Mice [1, 8]: 8 mice; Number of Surviving Mice [1, 9]: 8 mice; Number of Surviving Mice ([1]; day 35, all controls 0): 8 mice; Number of Surviving Mice ([1]; day 40, all controls 0): 8 mice; Number of Blood Platelets (blood platelets [2]): 18.1 ± 5.0 × 10^4 /μl; activity at 1 µg/mL [3]: 865%; activity at 0.1 µg/mL [3]: 382%; activity at 0.01 µg/mL [3]: 187%; activity at 0.001 µg/mL [3]: 97%; Number of Blood Platelets (blood platelets [4]): 86.3 ± 3.1 × 10^4 /μl

**Q.** For `CCCCCCCCCCCCCCCCCCCCCC(=O)N[C@@H](CO[C@H]1O[C@H](CO)[C@H](O)[C@H](O)[C@H]1O)[C@H](O)CCCCCCCCCCCCCCC` [Compound 2, (2S,3R)-2-docosanoylamino-1-(α-D-galactopyranosyloxy)-3-octadecanol], which “Number of Surviving Mice” value [1, 5] is on record?
**A.** 10 mice

**Q.** What about the “Number of Surviving Mice” value [1, 6] of the same compound?
**A.** 10 mice

**Q.** What about the “Number of Surviving Mice” value [1, 7] of the same compound?
**A.** 9 mice

**Q.** What about the “Number of Surviving Mice” value [1, 8] of the same compound?
**A.** 9 mice

**Q.** What about the “Number of Surviving Mice” value [1, 9] of the same compound?
**A.** 9 mice

**Q.** And the “Number of Surviving Mice” value ([1]; day 35, all controls 0)?
**A.** 9 mice

**Q.** What about the “Number of Surviving Mice” value ([1]; day 40, all controls 0) of the same compound?
**A.** 8 mice

**Q.** And the “Number of Blood Platelets” value (blood platelets [2])?
**A.** 21.5 ± 5.4 × 10^4 /μl

**Q.** What about the activity at 1 µg/mL [3] of the same compound?
**A.** 915%

**Q.** And the activity at 0.1 µg/mL [3]?
**A.** 295%

**Q.** What about the activity at 0.01 µg/mL [3] of the same compound?
**A.** 92%

**Q.** What about the activity at 0.001 µg/mL [3] of the same compound?
**A.** 123%

**Q.** What about the “Number of Blood Platelets” value (blood platelets [4]) of the same compound?
**A.** 96.3 ± 7.3 × 10^4 /μl

**Q.** With `CCCCCCCCCCCCCCCCCCCCCC[C@H](O)C(=O)N[C@@H](CO[C@H]1O[C@H](CO)[C@H](O)[C@H](O)[C@H]1O)[C@H](O)[C@H](O)CCCCCCCCCCCC(C)C` [Compound 30, (2S,3S,4R)-1-(α-D-galactopyranosyloxy)-2-[(S)-2-hydroxytetracosanoylamino]-16-methyl-3,4-heptadecanediol] as the compound, how does the “Number of Surviving Mice” value [1, 5] read?
**A.** 10 mice

**Q.** And the “Number of Surviving Mice” value [1, 6]?
**A.** 10 mice

**Q.** What about the “Number of Surviving Mice” value [1, 7] of the same compound?
**A.** 10 mice

**Q.** What about the “Number of Surviving Mice” value [1, 8] of the same compound?
**A.** 10 mice

**Q.** And the “Number of Surviving Mice” value [1, 9]?
**A.** 10 mice

**Q.** And the “Number of Surviving Mice” value ([1]; day 35, all controls 0)?
**A.** 10 mice

**Q.** What about the “Number of Surviving Mice” value ([1]; day 40, all controls 0) of the same compound?
**A.** 10 mice

**Q.** What about the “Number of Blood Platelets” value (blood platelets [2]) of the same compound?
**A.** 22.5 ± 3.5 × 10^4 /μl

**Q.** What about the activity at 1 µg/mL [3] of the same compound?
**A.** 712%

**Q.** And the activity at 0.1 µg/mL [3]?
**A.** 293%

**Q.** And the activity at 0.01 µg/mL [3]?
**A.** 105%

**Q.** And the activity at 0.001 µg/mL [3]?
**A.** 92%

**Q.** And the “Number of Blood Platelets” value (blood platelets [4])?
**A.** 106.2 ± 9.0 × 10^4 /μl

**Q.** For `CCCCCCCCCCCCC/C=C/[C@@H](O)[C@H](CO[C@H]1O[C@H](CO)[C@H](O)[C@H](O)[C@H]1O)NC(=O)CCCCCCCCCCCCCCCCC` [Compound 15, (2S,3R,4E)-1-(α-D-galactopyranosyloxy)-2-octadecanoylamino-4-octadecen-3-ol], which “Number of Surviving Mice” value [1, 5] is on record?
**A.** 10 mice

**Q.** What about the “Number of Surviving Mice” value [1, 6] of the same compound?
**A.** 9 mice

**Q.** What about the “Number of Surviving Mice” value [1, 7] of the same compound?
**A.** 6 mice

**Q.** What about the “Number of Surviving Mice” value [1, 8] of the same compound?
**A.** 6 mice

**Q.** What about the “Number of Surviving Mice” value [1, 9] of the same compound?
**A.** 6 mice

**Q.** And the “Number of Surviving Mice” value ([1]; day 35, all controls 0)?
**A.** 6 mice

**Q.** And the “Number of Surviving Mice” value ([1]; day 40, all controls 0)?
**A.** 6 mice

**Q.** And the “Number of Blood Platelets” value (blood platelets [2])?
**A.** 17.8 ± 2.4 × 10^4 /μl

**Q.** And the activity at 1 µg/mL [3]?
**A.** 979%

**Q.** And the activity at 0.1 µg/mL [3]?
**A.** 292%

**Q.** What about the activity at 0.01 µg/mL [3] of the same compound?
**A.** 101%

**Q.** And the activity at 0.001 µg/mL [3]?
**A.** 69%

**Q.** What about the “Number of Blood Platelets” value (blood platelets [4]) of the same compound?
**A.** 84.7 ± 6.0 × 10^4 /μl
